“Also recorded” adds a separate entry of the source.
Assays:
[1] = Partition coefficient, shake-flask n-octanol/phosphate buffer; type: physicochemical; conditions: n-octanol/0.1 M phosphate buffer pH 7.4, shake-flask
Protocol: 3.6. Determination of Partition Coefficient
The partition coefficient of [^125I]10 was measured, as previously reported with a slight modification. Briefly, [^125I]10 was added to the mixture of each 3 mL of n-octanol and 0.1 M phosphate buffer (pH 7.4) in a test tube. The test tube was vortexed for 1 min, left at room temperature for 10 min and centrifuged at 3000× g and 4 °C for 5 min. The n-octanol layer (2 mL) was transferred into a new test tube followed by adding 1 mL of new n-octanol and 3 mL of phosphate buffer. The radioactivity of each 1 mL layer, n-octanol and phosphate buffer was measured using an auto well gamma counter (n = 4). The log P value was calculated by the logarithm of the ratio of radioactivity per milliliter (cpm/mL) in n-octanol to that in phosphate buffer and represents mean ± SD.

[2] = In vitro stability in murine plasma; type: in vitro ADME, mouse; conditions: 37 °C
Protocol: 3.7. In Vitro Stability Experiments
The plasma was prepared by centrifugation of murine blood at 4 °C for 20 min at […]. The reaction was started by the addition of [^125I]10 (20 μL) in the plasma (180 µL). The mixture was incubated in a shaker at 300 rpm at 37 °C, which was carried out three times. Samples (100 µL) were taken at 0, 1 and 24 h and 100 µL acetonitrile, divided into five portions, was added for deproteinization of the plasma. The samples were left in the fridge for 15 min and then centrifuged at 4 °C for 15 min at […]. The supernatant was filtered through a pore size of 0.45 μm, then analyzed by RP-HPLC with a mobile phase gradient system water (A) and methanol (B), B: 70–100%, for 20 min using a Cosmosil® 5C18 MSII (4.6 ID × 150 mm) column at a flow rate of 1 mL/min. The column temperature was maintained at 40 °C. Radioactivity was measured by an auto well gamma counter.

[3] = system: H3255 cells (L858R active mutant EGFR); experiment: Cellular uptake study, H3255; type: cell-based, human
Protocol: (§1) 3.8. Cellular Uptake Studies
(§2) Then, the cell culture was incubated in a serum-free medium containing [^125I]10 (3.7 kBq/well) for 4 h. The medium from each well was removed and the cells were washed with 1 mL of ice-cold PBS. Finally, all cell fractions were lysed twice with 0.5 mL of 1 M NaOH aqueous solution. The radioactivity of every fraction was determined by an auto well gamma counter. Total cell protein was determined using the Bicinchoninic Acid (BCA) Protein Assay Kit (Nacalai) protocol, which uses bovine serum albumin as a standard reference. […]. All data were expressed as percent dose per milligram of protein (% dose/mg protein) ± SD.

[4] = system: H441 cells (wild-type EGFR); experiment: Cellular uptake study, H441; type: cell-based, human; conditions: H441, 4 h incubation
Protocol: as §1, §2

H3255 tumor = experiment: Biodistribution in tumor-bearing mice, H3255 tumor; type: in vivo, mouse
Protocol: Male ddY mice (27–30 g, 6 weeks old) and female BALB/c nu/nu mice (12–17 g, 4 weeks old) were purchased from Japan SLC Inc. (Hamamatsu, Japan). The mice were housed in a cage with free access to food and water maintained at a constant temperature (23–25 °C) with a 12 h light/dark cycle. […] The tumor reached palpable size 2- and 3-weeks post-inoculation. Animal experiments were conducted in accordance with laboratory guidelines for the care and use of animals of Kanazawa University. The animal handling protocol was approved by the Kanazawa University Animal Care Committee (approval number: AP-163766). 3.10. Biodistribution Studies Mice were injected intravenously via the lateral tail vein with a saline solution of [^125I]10 (25 kBq, 100 μL) containing 1% tween-80 and 10% ethanol. The ddY mice were sacrificed at 10 min, 1, 4 and 24 h; meanwhile, the tumor-bearing mice were sacrificed at 1 and 4 h post injection. The selected tissues and organs were collected and weighed and their radioactivity was measured using an auto well gamma counter. […] The mice were sacrificed 1 h after the administration of radiotracer. The biodistribution data are expressed as percent injected dose per gram of tissue (% ID/g) along with the SD.

C=CC(=O)Nc1cc([125I])cc(Nc2nc(Nc3ccc(N4CCN(C(C)=O)CC4)cc3OC)ncc2C(F)(F)F)c1 [[^125I]10]
logP [1]: 1.84 ± 0.01 | stability in plasma ([2]; 24 h incubation): purity decreased gradually | stability in plasma ([2]; until 1 h): slightly decomposed; also recorded: hardly decomposed | cell uptake ([3]; H3255, 4 h incubation): 33.52 % dose/mg protein | reduction of accumulation by gefitinib ([3]; H3255, gefitinib 100 µM): over 50% | cell uptake [4]: 8.95 % dose/mg protein | Biodistribution, H3255 tumor (H3255 tumor; Blocking (1 h), CO-1686 30 mg/kg i.p. 1 h prior): 1.47 (0.71) % ID/g tissue | Biodistribution, H3255 tumor (H3255 tumor; i.v., 1 h): 1.63 (0.23) % ID/g tissue | Biodistribution, H3255 tumor (H3255 tumor; i.v., 1 h, listed as [^125I]ICO1686): 1.63 ± 0.23 % ID/g tissue | Biodistribution, H3255 tumor (H3255 tumor; i.v., 4 h): 0.70 (0.13) % ID/g tissue
